Test results from PMC10096123, “14-Substituted Diquinothiazines as a New Group of Anticancer Agents” (Molecules, 2023).
Entries after “also recorded” stand apart in the source; their conditions may differ.

Assays:
[1] = system: A549 cells; assay: 72-h MTT viability assay, A549; type: cell-based, human; conditions: 72 h incubation, mean of 3 experiments +/-SD
Excerpt: (§1) The IC50 for cell viability was described with a dose of the drug, with a 50% reduction in the whole population, when compared to the untreated controls. The obtained results allow for a comparison of different compounds, using the same or different targeted cell lines. Cell survival fractions (SF), followed by the MTT 72-h viability assay for the HCT116 and SH-5YSY cells, are presented in the Supplementary File (Figure S1).
(§2) For cytological studies, human cancer cell lines were chosen, with special emphasis on the colorectal, HCT116, and neuroblastoma SH-5YSY cell lines, as well as lung normal epithelial BEAS-2B and cancer H1299 and A549 cancer cell lines (all obtained from the ATTC collection; Manassas, VA, USA). The cells were harvested under the standard conditions in incubator (5% CO2, 37 °C and 60% humidity; Panasonic model MCO-19 AIC). Cells were cultured in T75 mL sterile bottles (Sartedt), using DMEM-F12 medium (Merck, Poznań, Poland) supplemented with 10% of Fetal Bovine Serum (EURx, Gdańsk, Poland). During the experimental procedure, each cell line wasn’t more than 60–80% confluenced, no older than maximal number of passages 30. For adherent cell passages, the enzyme trypsin working solution, prepared in sodium phosphate buffer saline (PBS, pH = 7.4; PAN-Biotech Gmbh, Aidenbach, Germany), was used. The tested compounds were prepared as […] stocks in 100% DMSO (Merck, Poznań, Poland), and were stored at −20 °C. Before use in cytological studies, the working solution of each compound was prepared directly in complete DMEM-F12 medium. A positive-control, anticancer drug, etoposide (Merck, Poznań, Poland), was dissolved and prepared as solutions with doses of 20, 10, 5, 2.5, 1.25, 0.63 µM (0 µM for control, untreated cells in DMEM-F12 without any tested compound additions), respectively.
(§3) HCT116 and SH-5YSY cells collected after trypsinization were counted under the Bürker’s chamber, and 2000 or 5000 cells were seeded on each well of the 96-well-format sterile plate (Sarstedt, Nümbrecht, Germany), in 100 µL of complete DMEM-F12 medium, respectively. Twenty-four hours before compound addition, the cells were monitored directly on plates; only well-attached cells were used for treatments with background controls (DMSO with final maximal concentration of 1%) and untreated controls. The normal lung (BEAS-2B) and cancer (H1299 and […]) cell lines were cultured and prepared for viability MTT assay in similar way. To treat wells, 100 µL of tested compounds in fresh medium were added at concentration range of 100, 50, 25, 12.5, 6.25, 3.13 µM (0 µM for control, untreated cells in DMEM-F12 without any tested compound additions). An etoposide as a positive control, as anticancer drug, was prepared in similar way. Followed by 72 h of incubation, the viability assay was performed according to the producer protocol (Promega, Madison, WI, USA), where the medium and compounds were removed and cells were washed with PBS solution. A yellow tetrazolium salt (3-(4,5-dimethylthiazol-2-yl)-2,5-diphenyltetrazolium bromide solution (0.5 mg/mL) in serum and phenol red-free DMEM (Merck, Poznań, Poland) was added to each well on plates at a volume of 50 µL for 2–3 h of darkness, at 37 °C incubation. The purple formazan crystals were produced only by the viable cells, containing NAD (P)H-dependent oxidoreductase enzymes, which reduce the MTT. The crystals were dissolved in acidic (0.04 M HCl) 2-propanolol solution (Merck, Poznań, Poland) after addition of 75 µL of dissolving mixture to each well on plates for 5–10 min in darkness and at room-temperature (RT) incubation. The absorption at 570 nm was measured directly using multiplate reader (Epoch, BioTek, Winooski, VT, USA). Each time, the biological experiments were repeated three times.
(§4) Obtained absorbance was analyzed for proliferation and survival fraction (SF) assessments, where tested samples were compared to the untreated controls (100%). […]

[2] = system: BEAS-2B cells; assay: 72-h MTT viability assay, normal lung epithelial BEAS-2B; type: cell-based, human; conditions: 72 h incubation, mean of 3 experiments +/-SD, no effect = viability (SF) similar to control, about 100%; for IC50: Homo sapiens, BEAS-2B
Excerpt: as §1, §2, §3, §4

[3] = system: HCT116 cells; assay: 72-h MTT viability assay, HCT116; type: cell-based, human; conditions: 72 h incubation, mean of 3 experiments +/-SD
Excerpt: as §1, §2, §3, §4

[4] = system: H1299 cells; assay: 72-h MTT viability assay, H1299; type: cell-based, human; conditions: 72 h incubation, mean of 3 experiments +/-SD
Excerpt: as §1, §2, §3, §4

[5] = system: SH-SY5Y cells; assay: 72-h MTT viability assay, SH-SY5Y; type: cell-based, human; conditions: 72 h incubation, mean of 3 experiments +/-SD, no effect = viability (SF) similar to control, about 100%; for IC50: Homo sapiens, SH-SY5Y
Excerpt: as §1, §2, §3, §4

[6] = system: HCT116, SH-SY5Y, A549, H1299 cell lines; assay: 72-h MTT viability assay, all cell lines used in the study (summary statements); type: cell-based, human; conditions: for anticancer activity (ranking within the series): HCT116 and SH-SY5Y, in words
Excerpt: as §1, §2
HCT116 and SH-5YSY cells collected after trypsinization were counted under the Bürker’s chamber, and 2000 or 5000 cells were seeded on each well of the 96-well-format sterile plate (Sarstedt, Nümbrecht, Germany), in 100 µL of complete DMEM-F12 medium, respectively. Twenty-four hours before compound addition, the cells were monitored directly on plates; only well-attached cells were used for treatments with background controls (DMSO with final maximal concentration of 1%) and untreated controls. The normal lung (BEAS-2B) and cancer (H1299 and […]) cell lines were cultured and prepared for viability MTT assay in similar way. […] The absorption at 570 nm was measured directly using multiplate reader (Epoch, BioTek, Winooski, VT, USA). […]
as §4

Row | Structure (SMILES) | IC50 ([1]; Homo sapiens, A549, 72 h) [µM] | IC50 ([3]; Homo sapiens, HCT-116, 72 h) [µM] | IC50 ([4]; Homo sapiens, NCI-H1299, 72 h) [µM] | IC50 SH-SY5Y [5] | melting point [°C] | IC50 [5] [µM] | IC50 [1] [µM] | IC50 ([1]; listed as etopiside) [µM] | IC50 [4] [µM] | IC50 ([6]; Homo sapiens, range over the cancer cell lines, read-out: IC50 values against all cell lines used in the study) [µM] | IC50 [3] [µM] | IC50 [2] [µM] | IC50 BEAS-2B [2] | anticancer activity (ranking within the series) [6]
1 | CCN(CC)CCN1c2c(cnc3ccccc23)Sc2cnc3ccccc3c21 [Compound 2f] | 27.9 ± 2.07 | 16.9 ± 1.73 | 22.2 ± 3.83 | inactive; also recorded: no effect | – | – | – | – | – | – | – | 122 ± 12 | – | –
2 | CN(C)CCCN1c2c(cnc3ccccc23)Sc2cnc3ccccc3c21 [Compound 2g] | 31.5 ± 2.36 | 13.1 ± 1.82 | 24.5 ± 1.91 | inactive; also recorded: no effect | – | – | – | – | – | – | – | – | no effect | –
3 | COc1cc([C@@H]2c3cc4c(cc3[C@@H](O[C@@H]3O[C@@H]5CO[C@@H](C)O[C@H]5[C@H](O)[C@H]3O)[C@H]3COC(=O)[C@H]23)OCO4)cc(OC)c1O [etoposide, reference compound] | – | 8.6 ± 1.42 | 0.6 ± 0.16 | – | – | 3.9 ± 0.76 | 4.48 ± 0.21 | 44.8 | – | – | – | 0.00311 ± 0.0002 | – | –
4 | c1ccc2c3c(cnc2c1)Sc1cnc2ccccc2c1N3CCN1CCCC1 [Compound 2a, 14-(pyrrolidinylethyl)diquinothiazine] | 13.3 ± 2.23 | 11.1 ± 3.39 | 8.1 ± 1.83 | – | – | 6.5 ± 1.22 | – | – | – | – | – | 84.5 ± 11.1 | – | –
5 | c1ccc2c3c(cnc2c1)Sc1cnc2ccccc2c1N3CCN1CCOCC1 [Compound 2d] | 20.7 ± 2.25 | 23.1 ± 1.37 | 8.9 ± 1.02 | – | – | 13.5 ± 2.69 | – | – | – | – | – | 118 ± 18.4 | – | –
6 | c1ccc2c3c(cnc2c1)Sc1cnc2ccccc2c1N3CCN1CCCCC1 [Compound 2c] | 14.7 ± 2.81 | – | 7.5 ± 1.97 | – | – | 14.3 ± 1.49 | – | – | – | – | – | – | no effect | –
7 | O=C1CCCN1CCCN1c2c(cnc3ccccc23)Sc2cnc3ccccc3c21 [Compound 2b, 14-(pyrrolidinonylpropyl)diquinothiazine] | 12.4 ± 2.25 | 9.4 ± 4.41 | 5.3 ± 1.04 | – | – | 7.7 ± 2.59 | – | – | – | – | – | 83.5 ± 12.3 | – | –
8 | c1ccc2c3c(cnc2c1)Sc1cnc2ccccc2c1N3CCN1CCNCC1 [Compound 2e, 14-(piperazinyloethyl)dichinotiazyny] | 10.1 ± 2.26 | 10.3 ± 1.82 | 7 ± 1.85 | – | – | 4.9 ± 0.87 | – | – | – | – | – | 26.5 ± 1.85 | – | –

Continued, in another order:

Row | IC50 ([1]; Homo sapiens, A549, 72 h) [µM] | IC50 ([3]; Homo sapiens, HCT-116, 72 h) [µM] | IC50 ([4]; Homo sapiens, NCI-H1299, 72 h) [µM] | IC50 SH-SY5Y [5] | melting point [°C] | IC50 [5] [µM] | IC50 [1] [µM] | IC50 ([1]; listed as etopiside) [µM] | IC50 [4] [µM] | IC50 ([6]; Homo sapiens, range over the cancer cell lines, read-out: IC50 values against all cell lines used in the study) [µM] | IC50 [3] [µM] | Structure (SMILES) | IC50 [2] [µM] | IC50 BEAS-2B [2] | anticancer activity (ranking within the series) [6]
9 | 36.9 ± 16.8 | 17.6 ± 1.85 | 13.4 ± 1.68 | – | 184 to 186 | 21.6 ± 7.64 | – | – | – | – | – | CS(=O)(=O)NCCCCN1c2c(cnc3ccccc23)Sc2cnc3ccccc3c21 [Compound 6c, 14-methanesulfonylaminobutyldiquinothiazine] | – | no effect | –
10 | 49.3 ± 15.9 | 26.5 ± 1.15 | 30.3 ± 1.57 | – | 68 to 69 | 21.9 ± 4.31 | – | – | – | – | – | CC(=O)NCCCCN1c2c(cnc3ccccc23)Sc2cnc3ccccc3c21 [Compound 5c, 14-acetylaminobutyldiquinothiazine] | – | no effect | lowest anticancer activity
11 | 65.4 ± 14.1 | 20.2 ± 1.01 | 36.9 ± 6.06 | inactive; also recorded: no effect | 229 to 230 | – | – | – | – | – | – | CS(=O)(=O)NCCN1c2c(cnc3ccccc23)Sc2cnc3ccccc3c21 [Compound 6a, 14-methanesulfonylaminoethyldiquinothiazine] | – | no effect | –
12 | 17.2 ± 1.02 | – | 2.7 | – | 262 to 263 | 2.7 ± 0.21 | – | – | 1.6 ± 0.86 | 1.6 to 17.2 | – | CSc1ccc(N2c3c(cnc4ccccc34)Sc3cnc4ccccc4c32)cc1 [Compound 3c, 14-(methylthiophenyl)diquinothiazine] | 69 ± 4.89 | low cytotoxicity | strongest anticancer activity
13 | 56.5 ± 15.6 | 17.7 ± 1.53 | 23.5 ± 1.97 | – | 171 to 172 | 21.4 ± 4.02 | – | – | – | – | – | CC(=O)NCCCN1c2c(cnc3ccccc23)Sc2cnc3ccccc3c21 [Compound 5b, 14-acetylaminopropyldiquinothiazine] | 86.9 ± 9.67 | – | –
14 | 45.2 ± 17.2 | 15.6 ± 1.16 | 25.9 ± 4.14 | inactive; also recorded: no effect | 199 to 200 | – | – | – | – | – | – | CS(=O)(=O)NCCCN1c2c(cnc3ccccc23)Sc2cnc3ccccc3c21 [Compound 6b, 14-methanesulfonylaminopropyldiquinothiazine] | – | no effect | –
15 | 42.5 ± 16.5 | 17.1 ± 4.81 | 14.6 ± 1.92 | inactive; also recorded: no effect | 292 to 293 | – | – | – | – | – | – | FC(F)(F)c1ccc(N2c3c(cnc4ccccc34)Sc3cnc4ccccc4c32)cc1 [Compound 3b, 14-(4-trifluoromethylphenyl)diquinothiazine] | 86.1 ± 11 | – | –
16 | 18 ± 3.09 | 5.8 ± 0.63 | 67.2 ± 9.64 | inactive; also recorded: no effect | – | – | – | – | – | – | – | c1ccc2c3c(cnc2c1)Sc1cnc2ccccc2c1N3 [Compound M0] | – | no effect | –
17 | 84.9 ± 12.1 | < 8.6 | 3.7 ± 0.91 | inactive; also recorded: no effect | > 300 | – | – | – | – | – | 4.9 ± 1.97 | N#Cc1ccc(N2c3c(cnc4ccccc34)Sc3cnc4ccccc4c32)cc1 [Compound 3a, 14-(4-cyanophenyl)diquinothiazine] | – | no effect | –
